Data set [1] relates to MCF 7, A2780, and HT 29 cancer cell lines. The data set can be described thus: MTT cytotoxicity assay, tested cancer cell lines taken together. Particulars: for folds more selective/cytotoxic against tested cancer cell lines compared to MRC5 normal cells: ratio of MRC5 IC50 to cancer cell line IC50; for IC50: 72 h, MTT assay, MCF 7, A2780, HT 29, read-out: IC50 values against the three tested cancer cell lines (range over cell lines). It is filed as cell-based, human. Here is the method:
(§1) Three cancerous cell lines, as well as one normal fibroblast cell line, were bought from the ATCC, USA: MCF 7 (human breast adenocarcinoma), A2780 (human ovary adenocarcinoma), HT 29 (human colon adenocarcinoma), and MRC5 (normal human fetal lung fibroblast). The culture procedure was performed as described in the literature. Briefly, the cells were sub-cultured at 37 °C, 5% CO2, 95% air, and 100% relative humidity. RPMI-1640 media (10% FBS, L-glutamine and 1% antibiotic-antimycotic) was used for all cells except for MRC5, which was maintained in Eagles minimum essential medium (EMEM, 10% FBS and 1% antibiotic-antimycotic). Cytotoxicity of compounds 1–7 and 9 was evaluated by an MTT assay as previously described. Each of the three cell lines and one normal fibroblast were cultured in 96-well plates (3 × 10^3/well), and incubated at 37 °C overnight. Final concentrations of each compound were: 0, 0.05, 0.5, 5, 25, and 50 μM in media (DMSO 0.1%). Each concentration was tested in triplicates. The plates were incubated for 72 h and then MTT (50 μL) was added to each well. Plates were incubated for 3 h, supernatant was aspirated, and 100 μL of DMSO was added to each well. Absorbance was read on a multi-plate reader. The optical density of the purple formazan A550 is proportional to the number of viable cells. Compound concentrations causing 50% inhibition (IC50) compared to control cell growth (100%) were determined. GraphPad Prism version 5.00 for Windows, GraphPad Software (San Diego, CA, USA) was used for analysis.
A general note: Formazan colour is commonly taken as a measure of viable cells.

Data set [2] concerns MCF 7 (human breast adenocarcinoma). The experiment in a line: MTT cytotoxicity assay, MCF 7. It is filed as cell-based. Particulars: mean ± SD. Here is the method: as §1
The test system of data set [3] is MRC5 (normal human fetal lung fibroblast). The data set can be described thus: MTT cytotoxicity assay, MRC5 normal fibroblasts. It is filed as cell-based. As to conditions: 72 h, normal fibroblast cell line, mean ± SD. How it is done:
as §1

Data set [4] concerns HT 29 (human colon adenocarcinoma). The experiment in a line: MTT cytotoxicity assay, HT 29. Type of data set: cell-based. Particulars: mean ± SD. Here is the method: as §1
Data set [5] concerns A2780 (human ovary adenocarcinoma). The experiment in a line: MTT cytotoxicity assay, A2780. It is filed as cell-based. As to conditions: 72 h, mean ± SD. Here is the method:
as §1

The subject of data set [6] is MCF 7 cells. The data set can be described thus: Cell cycle analysis (PI, flow cytometry). Type of data set: cell-based, human. Particulars: MCF 7, 24 h, 5, 10 and 20 µM, compared to the control. Here is the method: The cell cycle is a series of changes occurring from the initial phase of cell formation leading to its division as a consequence of a specific mechanism. Cell cycle phases include G1 (gap 1), S (synthesis), G2 (gap 2), and M (mitosis), with cell cycle arrest usually taking place in the G1/S or the G2/M check points. Compound 1 was used to treat the MCF 7 cell line (24 h; 5 µM, 10 µM, and 20 µM) to investigate possible cell cycle effect.
Cell cycle analysis was performed using MCF 7 cells, which were cultured in 6 well plates (1 × 10^5 cells/well in 2 mL medium), before treatment with compound 1 (0, 5, 10, and 20 μM; 24 h). Cells were washed with cold PBS and trypsinized. Collected cells were centrifuged at 350 g/5 min, and supernatant discarded. Pellets were washed in cold PBS, centrifuged, and fixed overnight in 70% ice-cold ethanol. Centrifuged cells were re-suspended in cold PBS with the addition of ribonuclease A (15 min), followed by PI (2 µL/mL). Samples were held on ice and analyzed by flow cytometry. Data analysis of the DNA contents (PI bound to DNA) of 20,000 events was carried out using Expo 32 software.
A general note: Flow cytometry measures light scatter and fluorescence of single cells or particles in a stream.

Data set [7] relates to MCF 7 cells. The experiment in a line: Annexin V FITC/PI apoptosis assay. As to conditions: MCF 7, 24 h, 5, 10 and 20 µM. It is filed as cell-based, human. From the text: Apoptosis was quantified by detecting cell surface exposure of phosphatidylserine (PS) in apoptotic cells using annexin V PI/FITC. Living cells stained with neither of the two dyes (PI−/annexin V−), while early apoptotic cells stain only with annexin V (PI−/annexin V+). In late apoptosis, cell membrane integrity is lost allowing penetration of PI (PI+/annexin V+); while in necrosis (death), cells stain with PI only (PI+/annexin V−).
The Annexin V FITC/PI assay was devised to quantify apoptosis using MCF 7 cells. MCF 7 cells were cultured in 6 well plates (1 × 10^5 cells/well) in 2 mL medium overnight at 37 °C. Then it was treated by compound 1 (24 h; final concentrations: 0, 5, 10, and 20 µM). Media was collected in tubes and kept on ice, and remaining cells were trypsinized, incubated at 37 °C and added to previous tubes. Cells were centrifuged (350 g) and supernatants were discarded. Cells were washed with PBS, centrifuged and pellets re-suspended in binding buffer (100 μL) and annexin V FITC (10 μL). Tubes were incubated at room temperature in the dark for 20 min. Binding buffer (400 μL) and 10 μL propidium iodide (PI) were added. Samples were analyzed by flow cytometry (BC FC500) within 1 h. Viable cells were differentiated from early and late apoptotic/necrotic cells by annexin V (X axis) and PI staining (Y axis).

Here are results for four molecules from PMC8510169, “Isolation, Characterization, Complete Structural Assignment, and Anticancer Activities of the Methoxylated Flavonoids from Rhamnus disperma Roots” (Molecules, 2021).

The structures appear in SMILES notation. Read-outs that look alike come from different tables or passages of the source.

The IC50 is the midpoint of a concentration-inhibition curve. For the molecule `COc1cc(-c2oc3cc(OC)c(OC)c(O)c3c(=O)c2OC)cc(O)c1OC` [Compound 2, 5,3’-dihydroxy-3,6,7,4’,5’-penta-O-methyl flavone], the “folds more selective/cytotoxic against tested cancer cell lines compared to MRC5 normal cells” value (“folds more selective/cytotoxic” below) in data set [1] is given as “not selective”. Further, the IC50 is 6.81 ± 0.04 µM in data set [2] (Homo sapiens, MCF7, 72 h); 5.46 ± 1.57 µM in data set [3]; 9.07 ± 0.22 µM in data set [4] (Homo sapiens, HT-29, 72 h); 8.97 ± 1.72 µM in data set [5].

For `COc1cc(-c2oc3cc(OC)c(OC)c(O)c3c(=O)c2OC)cc(OC)c1OC` [Compound 3, 5-hydroxy-3,6,7,3’,4’,5’-hexa-O-methyl flavone], the IC50 in data set [1] (Homo sapiens) is 0.53 to 9.07 µM; in data set [2] (Homo sapiens, MCF7, 72 h) it was 2.76 ± 0.16 µM; in data set [3], 11.7 ± 1.58 µM; in data set [4] (Homo sapiens, HT-29, 72 h) it was 2.71 ± 1.25 µM; in data set [5], 3.73 ± 1.75 µM. For the same molecule, the “folds more selective/cytotoxic” value in data set [1] was 4–5 folds.

For the molecule `COc1cc2oc(-c3ccc(O)cc3)c(OC)c(=O)c2c(O)c1OC` [Compound 1, 5,4’-dihydroxy-3,6,7-tri-O-methyl flavone (penduletin)], the IC50 in data set [1] (Homo sapiens) was 0.53 to 9.07 µM; in data set [1], 0.53 to 2.17 µM; in data set [2] (72 h), 2.17 ± 0.26 µM; in data set [2] (Homo sapiens, MCF7, 72 h), not above 2 µM; in data set [3], 4.4 ± 1.45 µM; in data set [4] (72 h), 2.16 ± 0.02 µM. The IC50 in data set [4] (Homo sapiens, HT-29, 72 h) was not above 2 µM; in data set [5], 0.53 ± 0.45 µM. In addition, in data set [1], the “folds more selective/cytotoxic” value is reported as 2–9 folds. For the same molecule, the “effect on cell cycle (in words)” value in data set [6] is recorded as “caused G1 cell cycle arrest”; in data set [6] (listed as compound 1), “caused dose-dependent G1 arrest”. Moreover, the “induction of apoptosis (in words)” value is reported as “doubled MCF 7 apoptotic populations in a dose dependent manner” in data set [7] and “induced remarkable apoptosis in a dose dependent manner” in data set [7] (listed as compound 1).

As for `COc1cc(-c2oc3cc(OC)c(OC)c(OC(C)=O)c3c(=O)c2OC)cc(OC)c1OC` [Compound 9, 5-O-acetyl-3,6,7,3’,4’,5’-hexa-O-methyl flavone], the “folds more selective/cytotoxic” value in data set [1] was 6–8 folds. Besides, the concentration for half-maximal inhibition (IC50) in data set [2] (72 h) is 2.19 ± 0.64 µM; in data set [2] (Homo sapiens, MCF7, 72 h), 2 to 3 µM; in data set [3], 19 ± 2.98 µM; in data set [4] (72 h), 3.18 ± 0.64 µM; in data set [4] (Homo sapiens, HT-29, 72 h), 2 to 3 µM.
